Patent US20240239781A1, “1H-PYRAZOLE DERIVATIVES AS SIGMA LIGANDS” (ACONDICIONAMIENTO TARRASENSE, priority 2021, published 2024)

How the values were obtained:
human σ2/TMEM97 receptor = molecular target: T1, human σ2/TMEM97 receptor (Homo sapiens, UniProt Q5BJF2); assay: Binding assay to human σ2/TMEM97 receptor ([3H]-DTG, transfected HEK-293 membranes); details: class scale, read-out: Binding σ-2 Ki
T1 construct: expressed in transfected cells; host or cells: HEK-293
Experimental: Transfected HEK-293 membranes (15 μg) were incubated with 10 nM [^3H]-1,3-Di-o-tolylguanidine (DTG) in assay buffer containing Tris-HCl 50 mM at pH 8.0. NSB (non-specific binding) was measured by adding 10 μM haloperidol. The binding of the test compound was measured at either one concentration (% inhibition at 1 or 10 μM) or five different concentrations to determine affinity values (Ki). Plates were incubated at 25° C. for 120 minutes. After the incubation period, the reaction mix was transferred to MultiScreen HTS, FC plates (Millipore), filtered and washed 3 times with ice-cold 10 mM Tris-HCL (pH 8.0). Filters were dried and counted at approximately 40% efficiency in a MicroBeta scintillation counter (Perkin-Elmer) using EcoScint liquid scintillation cocktail.

human σ1 receptor = molecular target: T2, human σ1 receptor (Homo sapiens, UniProt Q99720); assay: Human σ1 receptor radioligand assay ([3H](+)-pentazocine, transfected HEK-293 membranes); details: class scale, read-out: Binding σ-1 Ki
T2 construct: expressed in transfected cells; host or cells: HEK-293
T2 sequence (Q99720 whole entry): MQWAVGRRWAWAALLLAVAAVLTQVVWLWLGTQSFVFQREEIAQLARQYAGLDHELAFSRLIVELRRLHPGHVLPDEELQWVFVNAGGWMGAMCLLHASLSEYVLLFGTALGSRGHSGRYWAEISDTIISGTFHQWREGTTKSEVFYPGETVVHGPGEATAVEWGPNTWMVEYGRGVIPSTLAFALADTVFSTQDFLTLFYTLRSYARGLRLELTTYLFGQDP
Experimental: Transfected HEK-293 membranes (7 μg) were incubated with 5 nM of [^3H](+)-pentazocine in assay buffer containing Tris-HCl 50 mM at pH 8. NBS (non-specific binding) was measured by adding 10 μM haloperidol. The binding of the test compound was measured at either one concentration (% inhibition at 1 or 10 μM) or five different concentrations to determine affinity values (Ki). Plates were incubated at 37° C. for 120 minutes. After the incubation period, the reaction mix was then transferred to MultiScreen HTS, FC plates (Millipore), filtered and plates were washed 3 times with ice-cold 10 mM Tris-HCL (pH7.4). Filters were dried and counted at approximately 40% efficiency in a MicroBeta scintillation counter (Perkin-Elmer) using EcoScint liquid scintillation cocktail.

T1 sequence (Q5BJF2 whole entry): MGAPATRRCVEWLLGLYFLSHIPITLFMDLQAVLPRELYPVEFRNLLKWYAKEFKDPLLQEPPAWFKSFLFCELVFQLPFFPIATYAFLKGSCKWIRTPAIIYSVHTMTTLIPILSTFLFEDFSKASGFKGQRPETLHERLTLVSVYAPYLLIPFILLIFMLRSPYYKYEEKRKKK

Row | Ki (human σ2/TMEM97 receptor) [nM] | Ki (human σ1 receptor) [nM] | SMILES
1 | < 100 | < 100 | CCn1nc(-c2ccon2)c(CC(=O)NC2CCN(CCC(C)(C)C)CC2)c1Cl [Example 221, 2-(5-Chloro-1-ethyl-3-(isoxazol-3-yl)-1H-pyrazol-4-yl)-N-(1-(3,3-dimethylbutyl)piperidin-4-yl)acetamide]
2 | < 100 | < 100 | CCn1nc(-c2cc(C)on2)c(CC(=O)NC2CCC3(CC2)CCN(CCC(C)(C)C)CC3)c1Cl [Example 216, 2-(5-Chloro-1-ethyl-3-(5-methylisoxazol-3-yl)-1H-pyrazol-4-yl)-N-(3-(3,3-dimethylbutyl)-3-azaspiro[5.5]undecan-9-yl)acetamide]
3 | 100 to 500 | 100 to 500 | Cc1cc(-c2nn(C)c(Cl)c2CN2CCC(CNCc3ccccc3)CC2)no1 [Example 56, N-Benzyl-1-(1-((5-chloro-1-methyl-3-(5-methylisoxazol-3-yl)-1H-pyrazol-4-yl)methyl)piperidin-4-yl)methanamine]
4 | < 100 | 100 to 500 | CCn1nc(-c2cc(C)on2)c(C(=O)N2CCCC3(CCN(CCC(C)(C)C)CC3)C2)c1Cl [Example 150, (5-Chloro-1-ethyl-3-(5-methylisoxazol-3-yl)-1H-pyrazol-4-yl)(9-(3,3-dimethylbutyl)-2,9-diazaspiro[5.5]undecan-2-yl)methanone]
5 | < 100 | 500 to 1000 | Cc1cc(-c2nn(C)c(Cl)c2C(=O)N2CCC3(CCCN(CCC(C)(C)C)C3)CC2)no1 [Example 91, (5-Chloro-1-methyl-3-(5-methylisoxazol-3-yl)-1H-pyrazol-4-yl)(2-(3,3-dimethylbutyl)-2,9-diazaspiro[5.5]undecan-9-yl)methanone]
6 | < 100 | < 100 | CCn1nc(-c2cc(C)on2)c(C(=O)NC2CCN(CCC(C)(C)C)CC2)c1Cl [Example 159, 5-Chloro-N-(1-(3,3-dimethylbutyl)piperidin-4-yl)-1-ethyl-3-(5-methylisoxazol-3-yl)-1H-pyrazole-4-carboxamide]
7 | < 100 | < 100 | CCn1nc(-c2cc(C)on2)c(C(=O)NC2CCC3(CC2)CN(CCC(C)(C)C)C3)c1Cl [Example 134, 5-Chloro-N-(2-(3,3-dimethylbutyl)-2-azaspiro[3.5]nonan-7-yl)-1-ethyl-3-(5-methylisoxazol-3-yl)-1H-pyrazole-4-carboxamide]
8 | < 100 | < 100 | Cc1cccc(-c2nn(C)c(Cl)c2C(=O)NC2CCC3(CC2)CCN(CCC(C)(C)C)CC3)n1 [Example 148, 5-Chloro-N-(3-(3,3-dimethylbutyl)-3-azaspiro[5.5]undecan-9-yl)-1-methyl-3-(6-methylpyridin-2-yl)-1H-pyrazole-4-carboxamide]
9 | > 1000 | 100 to 500 | Cc1cc(-c2nn(C)c(Cl)c2CN2CCCC[C@H](NCCC(C)C)C2)no1 [Example 12, (S)-1-((5-Chloro-1-methyl-3-(5-methylisoxazol-3-yl)-1H-pyrazol-4-yl)methyl)-N-isopentylazepan-3-amine]
10 | < 100 | 100 to 500 | CCc1cc(-c2nn(C)c(Cl)c2C(=O)N2CCC3(CCN(CCC(C)(C)C)CC3)CC2)no1 [Example 97, (5-Chloro-3-(5-ethylisoxazol-3-yl)-1-methyl-1H-pyrazol-4-yl)(9-(3,3-dimethylbutyl)-3,9-diazaspiro[5.5]undecan-3-yl)methanone]
11 | 100 to 500 | > 1000 | Cc1cc(-c2nn(C)c(Cl)c2CN2CCCC(NCCC(C)C)CC2=O)no1 (stereo not drawn) [Example 118, 1-((5-Chloro-1-methyl-3-(5-methylisoxazol-3-yl)-1H-pyrazol-4-yl)methyl)-4-(isopentylamino)azepan-2-one]
12 | 100 to 500 | 100 to 500 | Cc1cc(-c2nn(C)c(Cl)c2C(=O)N2CCCC(CN(C)CCC(C)(C)C)C2)no1 (stereo not drawn) [Example 121, (5-Chloro-1-methyl-3-(5-methylisoxazol-3-yl)-1H-pyrazol-4-yl)(3-(((3,3-dimethylbutyl)(methyl)amino)methyl)piperidin-1-yl)methanone]
13 | < 100 | 100 to 500 | Cc1cc(-c2nn(C)c(Cl)c2CC(=O)N2CCCC3(CCN(CCC(C)(C)C)CC3)C2)no1 [Example 214, 2-(5-Chloro-1-methyl-3-(5-methylisoxazol-3-yl)-1H-pyrazol-4-yl)-1-(9-(3,3-dimethylbutyl)-2,9-diazaspiro[5.5]undecan-2-yl)ethan-1-one]
14 | < 100 | 100 to 500 | CCn1nc(-c2ccnc(C)c2)c(C(=O)N2CCC3(CCN(CCC(C)(C)C)CC3)CC2)c1Cl [Example 207, (5-Chloro-1-ethyl-3-(2-methylpyridin-4-yl)-1H-pyrazol-4-yl)(9-(3,3-dimethylbutyl)-3,9-diazaspiro[5.5]undecan-3-yl)methanone]
15 | < 100 | 500 to 1000 | Cc1cc(-c2nn(C)c(Cl)c2C(=O)N2CCCC(CNCCC(C)(C)C)C2)no1 (stereo not drawn) [Example 83, (5-Chloro-1-methyl-3-(5-methylisoxazol-3-yl)-1H-pyrazol-4-yl)(3-(((3,3-dimethylbutyl)amino)methyl)piperidin-1-yl)methanone]

Continued, compound first:

Row | SMILES | Ki (human σ2/TMEM97 receptor) [nM] | Ki (human σ1 receptor) [nM]
16 | Cc1conc1-c1nn(C)c(Cl)c1C(=O)N1CCC2(CCN(CCC(C)(C)C)CC2)CC1 [Example 100, (5-Chloro-1-methyl-3-(4-methylisoxazol-3-yl)-1H-pyrazol-4-yl)(9-(3,3-dimethylbutyl)-3,9-diazaspiro[5.5]undecan-3-yl)methanone] | < 100 | 500 to 1000
17 | CCn1cc(-c2nn(C)c(Cl)c2C(=O)NC2CC3(CCN(CCC(C)(C)C)CC3)C2)cn1 [Example 145, 5-Chloro-N-(7-(3,3-dimethylbutyl)-7-azaspiro[3.5]nonan-2-yl)-1′-ethyl-1-methyl-1H,1′H-[3,4′-bipyrazole]-4-carboxamide] | < 100 | 500 to 1000
18 | Cc1cc(-c2nn(C)c(Cl)c2CN2CCC3(CCN(CCC(C)C)CC3)CC2)no1 [Example 67, 3-(5-Chloro-4-((9-isopentyl-3,9-diazaspiro[5.5]undecan-3-yl)methyl)-1-methyl-1H-pyrazol-3-yl)-5-methylisoxazole] | < 100 | 500 to 1000
19 | Cc1cc(-c2nn(C)c(Cl)c2C(=O)N2CCC3(CC2)CC(NCCC(C)(C)C)C3)no1 [Example 174, (5-Chloro-1-methyl-3-(5-methylisoxazol-3-yl)-1H-pyrazol-4-yl)(2-((3,3-dimethylbutyl)amino)-7-azaspiro[3.5]nonan-7-yl)methanone] | < 100 | 500 to 1000
20 | COc1ccc(-c2nn(C)c(Cl)c2CN2CCCCC(NCCC(C)C)C2)nc1 (stereo not drawn) [Example 36, 1-((5-Chloro-3-(5-methoxypyridin-2-yl)-1-methyl-1H-pyrazol-4-yl)methyl)-N-isopentylazepan-3-amine] | > 1000 | 500 to 1000
21 | Cc1cc(-c2nn(C)c(Cl)c2CN2CCC(CN(CC(C)C)CC(C)C)C2)no1 (stereo not drawn) [Example 42, N-((1-((5-Chloro-1-methyl-3-(5-methylisoxazol-3-yl)-1H-pyrazol-4-yl)methyl)pyrrolidin-3-yl)methyl)-/-isobutyl-2-methylpropan-1-amine] | 100 to 500 | > 1000
22 | Cc1cc(-c2nn(C)c(Cl)c2CN2CC[C@@H](CNCCc3ccccc3)C2)no1 [Example 72, (S)-N-((1-((5-chloro-1-methyl-3-(5-methylisoxazol-3-yl)-1H-pyrazol-4-yl)methyl)pyrrolidin-3-yl)methyl)-2-phenylethanamine] | 100 to 500 | 500 to 1000
23 | Cc1cc(-c2nn(C)c(Cl)c2C(=O)N2CC3(CCCN(CCC(C)(C)C)C3)C2)no1 [Example 144, (5-Chloro-1-methyl-3-(5-methylisoxazol-3-yl)-1H-pyrazol-4-yl)(6-(3,3-dimethylbutyl)-2,6-diazaspiro[3.5]nonan-2-yl)methanone] | 100 to 500 | 500 to 1000
24 | CC(C)CCNC1CCCCN(Cc2c(-c3cccc(O)n3)nn(C)c2Cl)C1 (stereo not drawn) [Example 39, 6-(5-Chloro-4-((3-(isopentylamino)azepan-1-yl)methyl)-1-methyl-1H-pyrazol-3-yl)pyridin-2-ol] | 100 to 500 | 500 to 1000
25 | Cc1cc(-c2nn(C)c(Cl)c2CN2CCC3(CCN(CCC(C)(C)C)C3)C2)no1 (stereo not drawn) [Example 54, 3-(5-Chloro-4-((7-(3,3-dimethylbutyl)-2,7-diazaspiro[4.4]nonan-2-yl)methyl)-1-methyl-1H-pyrazol-3-yl)-5-methylisoxazole] | < 100 | < 100
26 | Cc1cc(-c2nn(-c3ccccc3)c(Cl)c2CN2CCCCC(NCCC(C)C)C2)no1 (stereo not drawn) [Example 18, 1-((5-Chloro-3-(5-methylisoxazol-3-yl)-1-phenyl-1H-pyrazol-4-yl)methyl)-N-isopentylazepan-3-amine] | > 1000 | 100 to 500
27 | Cc1cc(-c2nn(C)c(Cl)c2CN2CC[C@@]3(CCN(CCC(C)(C)C)C3)C2)no1 [Example 70, (R)-3-(5-chloro-4-((7-(3,3-dimethylbutyl)-2,7-diazaspiro[4.4]nonan-2-yl)methyl)-1-methyl-1H-pyrazol-3-yl)-5-methylisoxazole] | < 100 | < 100
